Results: patent publication US5948628A, “Methods of screening for compounds which mimic galectin-1” (The Board of Regents of The University of Oklahoma, priority 1997, dated 1999)

Columns and labels:
[1] = target: T1, hamster galectin-1 mutant V5D-Gal-1 (Val-5 to Asp), SEQ ID NO:3 (Cricetulus griseus, UniProt P48538, V6D); experiment: Equilibrium dialysis binding of N-acetyllactosamine
T1 construct: made in house; host or cells: E. coli
From the text: (§1) Specific mutations were created in the six N-terminal amino acids (SEQ ID NO:1) of hamster galectin-1, as indicated in FIG. 3 and as described in further detail in Cho and Cummings, Biochemistry, 35:13081, 1996, which is hereby incorporated by reference herein in its entirety. C2S-Gal-1 (SEQ ID NO:2) contains a single replacement of Cys-2 to Ser. V5D-Gal-1 (SEQ ID NO:3) contains a single mutation of Val-5 to Asp. N-Gal-1 (SEQ ID NO:4) contains disruptions of three hydrophobic amino acids at the N-terminus. We also made another mutant construct, termed N/C-Gal-1, which contained the amino terminal changes of N-Gal-1 in addition to multiple changes in specific hydrophobic amino acids at the C-terminus (data not shown). All mutants, except for C2S-Gal-1, behaved as monomers in size exclusion HPLC and native gel electrophoresis. C2S-Gal-1 was indistinguishable from the native lectin in its ability to undergo monomer-dimer equilibrium and in its carbohydrate-binding affinity. […] However, in equilibrium dialysis N-Gal-1 and V5D-Gal-1 bound N-acetyllactosamine with similar affinity (Kd ≈90 μM) to that of the C2S-Gal-1 and the native lectin. […] N/C-Gal-1 was non-functional.

[2] = target: T2, hamster galectin-1 mutant N-Gal-1 (monomeric; three hydrophobic N-terminal amino acids disrupted), SEQ ID NO:4 (Cricetulus griseus, UniProt P48538, A7S/C3S/L5Q/V6D); experiment: as above
T2 construct: made in house; host or cells: E. coli
From the text: as §1

[3] = target: T3, hamster galectin-1 mutant C2S-Gal-1 (Cys-2 to Ser), SEQ ID NO:2 (Cricetulus griseus, UniProt P48538, C3S); experiment: as above; conditions: stated only as similar affinity to the monomeric mutants
T3 construct: made in house; host or cells: E. coli
From the text: as §1

[4] = target: hamster galectin-1, native lectin (N-terminus SEQ ID NO:1) (Cricetulus griseus, UniProt P48538); experiment: as above; conditions: stated only as similar affinity to the monomeric mutants
From the text: as §1

[5] = target: T4, recombinant galectin-1 (Cys at 2nd residue converted to Ser) (Cricetulus griseus, UniProt P48538, C3S); experiment: Galectin-1-induced apoptosis of activated neutrophils and desialylated HL-60 cells (annexin V staining); assay type: cell-based, hamster; conditions: galectin-1 10 μM; lactose 10 mM
T4 construct: made in house; host or cells: E. coli
Method: Resting or activated neutrophils (3×10^6 cells) were treated with galectin-1 (10 μM) in 0.5 ml of HBSS (lacking Ca^2+ /Mg^2+ and containing 0.5% human albumin) for 90 minutes at 37° C. in the presence or absence of 10 mM lactose. HL-60 cells and desialylated HL-60 cells (3×10^6 cells/0.5 ml) were treated with galectin-1 (10 μM) for 20 hours at 37° C. in the presence or absence of 10 mM lactose. At the end of the incubations all cells were treated with 10 mM lactose in PBS to disaggregate the cells. […]
Annexin V is a protein that recognizes phosphatidyl serine (PS) and is a convenient marker for apoptosis of neutrophils and other cells (S. J. Martin, C. P. Reutelingsperger, A. J. McGahon, J. A. Rader, R. C. van Schie, D. M. LaFace and D. R. Green DR, J. Exp. Med., 182:1545, 1995; C. H. Homburg, M. de Haas, A. E. von dem Borne, A. J. Verhoeven, C. P. Reutelingsperger and D. Roos, Blood, 85:532, 1995; I. Vermes, C. Haanen, H. Steffens-Nakken, and C. Reutelingsperger, J. Immunol. Methods, 184:39, 1995; Z. Darzynkiewicz, G. Juan, X. Li, W. Gorczyca, T. Murakami, and F. Traganos, Cytometry 27:1, 1997). […] Within 90 minutes following treatment with 10 μM galectin-1, 36% of the activated neutrophils undergo apoptosis, as determined by their staining with annexin V (FIG. 2A). […]

[6] = target: T4, recombinant galectin-1 (Cys at 2nd residue converted to Ser); experiment: Binding of biotinylated galectin-1 to activated neutrophils and desialylated HL-60 cells (flow cytometry); assay type: cell-based, hamster; conditions: 10 mM sugar; galectin-1 10 μg/ml; activated neutrophils, desialylated HL-60 cells
From the text: Isolated neutrophils were activated by treatment with PMA and HL-60 cells were desialylated by treatment with neuraminidase. Heparinized blood was obtained from normal donors. Neutrophils were isolated by dextran sedimentation, hypotonic lysis, and density gradient centrifugation on HISTOPAQUE-1077 (Sigma), as described [G. A. Zimmerman, T. M. McIntyre, and S. M. Prescott, J. Clin. Invest., 76:2235, 1985]. Typically, the polymorphonuclear cells were >90% neutrophils by Wright-Giemsa staining and >90% CD16^+ as assessed by flow cytometry. Neutrophils were activated by treatment with phorbol myristate acetate (PMA) (Sigma) (0.5 μM) for 20 minutes at 37° C. in RPMI containing 20% FCS (0.5 ml). HL-60 cells were routinely maintained in RPMI containing 20% FCS. Desialylated HL-60 cells were prepared by treating 3×10^7 cells with Arthrobacter ureafaciens neuraminidase (Sigma) (100 mU) in 500 μl of RPMI containing 20% FCS for 1 hour at 37° C. […] The washed cells were incubated with FITC-streptavidin (1:100 dilution) (Sigma), washed once with PBS, and analyzed by flow cytometry. […] "Unstained" indicates fluorescence of either resting neutrophils or HL-60 cells incubated in the absence of either MAL or galectin-1. "Control" indicates fluorescence of either activated neutrophils or desialylated HL-60 cells incubated with galectin-1 in the presence of 10 mM lactose.

[7] = target: T4, recombinant galectin-1 (Cys at 2nd residue converted to Ser); experiment: Cell agglutination by galectin-1; assay type: cell-based, hamster
Method: In all cases cell binding of galectin-1 to cells was inhibited by 10 mM lactose, a known inhibitor of galectin-1 (FIG. 1), but not by 10 mM maltose, an isomeric, non-inhibitory analog (data not shown). We noted that both activated neutrophils and desialylated HL-60 cells are strongly agglutinated by galectin-1, whereas resting neutrophils and HL-60 cells are not appreciably agglutinated, which further underscores the profound differences in surface phenotypes between resting and activated neutrophils.

T4 sequence (P48538 whole entry C3S): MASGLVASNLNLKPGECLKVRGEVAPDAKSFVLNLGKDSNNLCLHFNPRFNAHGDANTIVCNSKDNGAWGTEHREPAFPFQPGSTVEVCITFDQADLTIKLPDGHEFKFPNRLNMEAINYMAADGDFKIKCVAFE
Chain of hamster galectin-1, native lectin (N-terminus SEQ ID NO:1) (P48538 2-135): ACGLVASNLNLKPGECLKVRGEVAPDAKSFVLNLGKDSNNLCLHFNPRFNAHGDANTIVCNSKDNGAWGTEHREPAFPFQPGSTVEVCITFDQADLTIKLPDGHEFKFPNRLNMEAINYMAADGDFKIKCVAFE
T1 sequence (P48538 whole entry V6D): as the sequence (P48538 whole entry C3S) above, with S3C, V6D counted along it
T3 sequence (P48538 whole entry C3S): as the sequence (P48538 whole entry C3S) above
T2 sequence (P48538 2-135 C3S/L5Q/V6D/A7S limits assumed): as the sequence (P48538 2-135) above, with C2S, L4Q, V5D, A6S counted along it

| Kd [1] | Kd [2] | Kd [3] | Kd [4] | Inhibition of apoptosis-inducing activity of galectin-1 [5] | Inhibition of cell binding of galectin-1 [6] | Inhibition of cell agglutinating activity of galectin-1 [7] | SMILES |
| --- | --- | --- | --- | --- | --- | --- | --- |
| ~90 µM | ~90 µM | ~90 µM | ~90 µM |  |  |  | CC(=O)N[C@H]1C(O)O[C@H](CO)[C@@H](O[C@@H]2O[C@H](CO)[C@H](O)[C@H](O)[C@H]2O)[C@@H]1O (some centres unmarked) [N-acetyllactosamine] |
|  |  |  |  | inhibited | inhibited | inhibited | OC[C@H]1O[C@@H](O[C@H]2[C@H](O)[C@@H](O)C(O)O[C@@H]2CO)[C@H](O)[C@@H](O)[C@H]1O (some centres unmarked) [lactose] |
|  |  |  |  |  | non-inhibitory |  | OC[C@H]1O[C@H](O[C@H]2[C@H](O)[C@@H](O)[C@H](O)O[C@@H]2CO)[C@H](O)[C@@H](O)[C@@H]1O [maltose] |
